Measurements as given in patent publication US12673057B2, “RIPK2 inhibition for the treatment of cancer” (CEDARS-SINAI MEDICAL CENTER, priority 2020, dated 2026).
“Also recorded” adds a separate entry of the source. Where two headings read alike, the source gives them in different places. Residues, ends and D or L forms follow the SMILES beside them. *: point of attachment. Cbz = O=C(OCc1ccccc1)*

Key:
MYC mRNA = MYC mRNA abundance by quantitative RT-PCR; type: cell-based; conditions: different doses and time
Excerpt: Total RNA was extracted from cells using the TRIZOL (Invitrogen). Messenger RNA was converted to the first-strand cDNA using iScript cDNA synthesis kit (Bio-Rad), followed by RT-PCR reaction using SYBR Green PCR Master Kit in QuantStudio 5 Systems (Applied Biosystems). Gene expression was normalized to GAPDH using the comparative CT method. To determine how RIPK2 upregulates the c-Myc protein, we first examined whether RIPK2 regulates the transcription of the MYC gene. […] Thus, the regulation of c-Myc protein abundance by RIPK2 is mainly via a post-transcriptional mechanism.

RIPK2 = experiment: Cell-based MKK7 phosphorylation immunoblot, surrogate for RIPK2 activity, RIPK2-KO HEK293T cells; design: species or system human; conditions: 10 μM, 2 h, 10% fetal bovine serum
[1] = mouse, in vivo, po, 30 mg/kg
[2] = test system: RIPK2/MKK7(/JNK)/c-Myc signaling; experiment: Immunoblot of endogenous p-JNK, p-c-Myc-S62 and c-Myc in parental PC cells; type: cell-based, human; conditions: 10 μM GSK583 or 5 μM Ponatinib, 2 h
[3] = test system: PC3, DU145, and 22Rv1 cells; experiment: Clonogenic assay (anchorage-dependent colony formation); type: cell-based, human
Protocol: Two milliliters of PC3 (250/mL), DU145 (250/mL), or 22Rv1 (1,000/mL) cells were seeded in 6-well plates and cultured in 10% FBS-containing media, which were replaced every 2-3 days. After 10-14 days, cells were fixed in 4% paraformaldehyde for 15 min and rinsed with DPBS for three times. Cells were stained with 120 μg/mL crystal violet solution. Cell colonies were quantified under an All-in-one microscope (Keyence) as described in the migration assay.

22Rv1 cells = test system: 22Rv1 cells
Protocol: Experimental metastasis model: For In vivo metastasis assays, pBMN (CMV-copGFP-Luc2-Puro) (Addgene) was stably transfected into control and RIPK2-KO 22Rv1 cells. Two weeks later, luciferase-expressing cells were sorted with a FACSAria III (BD Biosciences) using the same gate for GFP. […] To each male SCID/Beige mouse (7-week-old; Charles River), 100 μL of 1×10^7 cells/mL in DPBS was intracardially injected into the left cardiac ventricle. Each week, 150 μL of 30 mg/mL D-luciferin was intraperitoneally injected into each mouse, followed by measuring tumor metastasis with an IVIS Spectrum In Vivo Imaging System (PerkinElmer). Luciferase activity was quantified by the Living Image software (Caliper Life Sciences, v4.3.1).
Established metastasis model: For drug treatment, to each male SCID/Beige mouse (8-week-old; Charles River), 100 μL of 2.5×10^6 cells/mL in DPBS was intracardially injected. […] Two more mice were assigned to drug treatment groups in preparation for possible drug toxicity deaths, compared with the control group. Mice were daily administered by oral gavage (po qd) with a drug or vehicle control for 28 days. GSK583 was administered at 10 mg/kg po qd. […] Metastases were visualized by bioluminescence imaging every week as described above. At the end of the experiments, mice were sacrificed by standard necropsy, and tumors were harvested and subjected to histopathology analyses.
In the clinical scenario, patients with nmCRPC have no detectable metastases by conventional radiographic imaging. […] To investigate whether pharmacological inhibition of RIPK2 can suppress PC metastasis in a setting that mimics the clinical scenario, we injected the aforementioned luciferase-tagged control 22Rv1 cells intracardially into male SCID/Beige mice, and waited for 9 days to allow for the formation of early metastatic lesions, prior to drug treatment (FIG. 22G). To determine whether GSK583 impairs metastatic outgrowth, we randomized the mice into two groups (FIG. 31A), followed by treatment with vehicle control or GSK583 (10 mg/kg) administered by oral gavage every day (po qd).

PC3 cells = experiment: 3D spheroid invasion assay; conditions: 10 μM, 3D culture
[4] = test system: PC3, DU145, and 22Rv1 cells; experiment: Soft agar assay (anchorage-independent colony formation); type: cell-based, human; conditions: 10 μM
Protocol: Soft agar assay was performed essentially as described (Borowicz et al., 2014). Briefly, 1.5 mL of 0.5% Nobel agar solution was plated in each well of 6-well plates as the bottom layer. 1.5 mL of 6.67×10^3/mL (for PC3 and DU145) or 1.33×10^4/mL (for 22Rv1) cells in 0.3% noble agar solution were plated in 6-well plates as the top layer. […] The medium was replaced every 2-3 days. After 2-3 weeks, cell colonies were stained with 0.1% crystal violet solution for 20 minutes and washed with deionized water for five times. Cell colonies were quantified under an All-in-one microscope (Keyence) as described in the migration assay.

JNK = experiment: RIPK2-induced c-Jun phosphorylation (surrogate for JNK activity) in RIPK2/MKK7-DKO HEK293T cells; type: cell-based, human; conditions: 1 μM, 2-h treatment
Protocol: (A) Representative immunoblots of the indicated proteins in total lysates of HEK293T cells with RIPK2- and MKK7-double knockout, which were transiently co-transfected with 0.5 μg MYC, 0.5 μg RIPK2m4, and 0.1 μg MAP2K7 or vector plasmids and then treated with vehicle control, MKK7-COV-3 (25 μM), or JNK-IN-8 (1 μM) in 10% FBS-containing medium for 2 h. (B) Representative images (upper) and quantification (lower) of PLA detecting the association of endogenous MKK7 and c-Myc in HEK293T cells (n=4 per group). (C) Representative images of immunofluorescence colocalization of MKK7 and c-Myc in RIPK2/MKK7-DKO HEK293T cells, which were transiently co-transfected with RIPK2m4, MKK7-His, and MYC plasmids. (D) Representative immunoblots of the indicated proteins after in vitro kinase reactions. (E) Representative immunoblots of the indicated proteins in total lysates of RIPK2/MKK7-DKO HEK293T cells, which were transiently transfected with the indicated forms of MKK7 plasmids or vector control. […] (G) Representative images (upper) and quantification (lower) of PLA detecting the MKK7-c-Myc complex in RIPK2-KO HEK293T cells, which were transiently transfected with MYC and RIPK2m4 or vector control (n=5 per group). […]

[5] = test system: c-Myc-Ser62 phosphorylation; experiment: RIPK2-induced c-Myc-Ser62 phosphorylation immunoblot in RIPK2/MKK7-DKO HEK293T cells; type: cell-based, human
Protocol: (A) Representative immunoblots of the indicated proteins in total lysates of HEK293T cells with RIPK2- and MKK7-double knockout, which were transiently co-transfected with 0.5 μg MYC, 0.5 μg RIPK2m4, and 0.1 μg MAP2K7 or vector plasmids and then treated with vehicle control, MKK7-COV-3 (25 μM), or JNK-IN-8 (1 μM) in 10% FBS-containing medium for 2 h. (B) Representative images (upper) and quantification (lower) of PLA detecting the association of endogenous MKK7 and c-Myc in HEK293T cells (n=4 per group). (C) Representative images of immunofluorescence colocalization of MKK7 and c-Myc in RIPK2/MKK7-DKO HEK293T cells, which were transiently co-transfected with RIPK2m4, MKK7-His, and MYC plasmids. (D) Representative immunoblots of the indicated proteins after in vitro kinase reactions. (E) Representative immunoblots of the indicated proteins in total lysates of RIPK2/MKK7-DKO HEK293T cells, which were transiently transfected with the indicated forms of MKK7 plasmids or vector control. (F) Representative immunoblots of the indicated proteins in total lysates, cytoplasmic fraction, and nuclear fraction of RIPK2/MKK7-DKO HEK293T cells, which were transiently co-transfected with RIPK2m4, MYC, and MKK7 or vector control. (G) Representative images (upper) and quantification (lower) of PLA detecting the MKK7-c-Myc complex in RIPK2-KO HEK293T cells, which were transiently transfected with MYC and RIPK2m4 or vector control (n=5 per group). […] Data are Mean±SEM.
MKK7-COV-3, 25 μM; JNK-IN-8, 1 μM; 2-h treatment).

c-Myc protein = c-Myc protein degradation under cycloheximide treatment in PC3 cells; type: cell-based, human; conditions: in the presence of CHX treatment
Excerpt: In human cells, the c-Myc protein can be rapidly stabilized through Ser62 phosphorylation, which prevents the targeted degradation of c-Myc by the ubiquitin-proteasome system (Farrell and Sears, 2014). Therefore, we investigated whether RIPK2 phosphorylates and stabilizes the c-Myc protein. Ectopic overexpression of RIPK2 increased the abundance of phospho-c-Myc-Ser62 (p-c-Myc-Ser62) and total c-Myc in a dose-dependent fashion (FIG. 18L). […] Of note, RIPK2 is more frequently amplified or gained in mCRPC or overexpressed in primary PC than all known direct c-Myc-Ser62 kinases (FIG. 29). This raises a possibility that RIPK2 can more efficiently stabilize and activate c-Myc, and thus its overexpression is more favored by PC cells than the known direct c-Myc-Ser62 kinases. Collectively, RIPK2 stabilizes the c-Myc protein by phosphorylating its Ser62 residue and preventing it from proteasomal degradation, and RIPK2 is potentially a major stabilizer of the c-Myc protein in PC cells.

PC3 and 22Rv1 cells = experiment: PC cell viability; conditions: 1 μM, 10% FBS-containing medium
[6] = cited from earlier work

SMILES: CC(C)(C)S(=O)(=O)c1ccc2nccc(Nc3n[nH]c4ccc(F)cc34)c2c1 [GSK583]
- regulation of MYC mRNA abundance (MYC mRNA): ~10%
- MKK7 phosphorylation levels (a surrogate for RIPK2 activity) (RIPK2): substantially decreased
- toxicity to mice [1]: toxic to mice
- RIPK2/MKK7(/JNK)/c-Myc signaling [2]: can inhibit
- anchorage-dependent colony formation ([3]; 10 μM, PC3, DU145, and 22Rv1): suppresses
- inhibition at 10 µM ([3]; Homo sapiens, read-out: inhibition of colony formation): ≥ 40%
- inhibition of colony formation ([3]; low doses (≤1 μM), PC3, DU145, and 22Rv1): not at low doses
- PC liver metastasis in vivo (22Rv1 cells; 10 mg/kg po qd): Inhibits
- prostate cancer (22Rv1) metastasis in mice (22Rv1 cells; 10 mg/kg po qd): significantly decreased; also recorded: significantly suppressed; also recorded: significantly reduces; also recorded: Inhibits
- decrease of BLI intensities in the ventral-side mid-body (liver metastasis) (22Rv1 cells; 10 mg/kg po qd, week 4): 67%
- reduction of metastatic progression (total BLI intensities) (22Rv1 cells; 10 mg/kg po qd, week 4): 50%
- spheroid invasion of PC3 cells (PC3 cells): significantly decreased; also recorded: significantly inhibited; also recorded: suppresses
- anchorage-independent colony formation [4]: suppresses

SMILES: Cc1cc(NC(=O)c2cccc(NC(=O)/C=C/CN(C)C)c2)ccc1Nc1nccc(-c2cccnc2)n1 [JNK-IN-8]
- RIPK2-induced c-Jun phosphorylation, a surrogate for JNK activity (JNK): completed abolished
- reduction of RIPK2-induced c-Myc-Ser62 phosphorylation ([5]; 1 μM, 2-h treatment): 16%
- inhibition of RIPK2-induced c-Myc-Ser62 phosphorylation at higher concentrations ([5]; up to 25 μM): could not enhance its inhibition

SMILES: CC(C)C[C@@H](C=O)NC(=O)[C@H](CC(C)C)NC(=O)[C@H](CC(C)C)NC(=O)OCc1ccccc1 [MG132] (Cbz-Leu-Leu-Leu-aldehyde)
- degradation of the c-Myc protein (c-Myc protein): degradation can be blocked

SMILES: C=CC(=O)Nc1cccc(-c2n[nH]c3cc(C)ccc23)c1 [MKK7-COV-3]
- decrease of RIPK2-induced c-Myc-Ser62 phosphorylation ([5]; 25 μM, 2-h treatment): 45%

SMILES: Cc1ccc(C(=O)Nc2ccc(CN3CCN(C)CC3)c(C(F)(F)F)c2)cc1C#Cc1cnc2cccnn12 [Ponatinib]
- effect on PC cell viability (PC3 and 22Rv1 cells): marginal effects
- IC50 ([3]; Homo sapiens, read-out: IC50 of colony formation of PC cells): < 1 µM
- reduction of total BLI intensities (22Rv1 cells; high-dose 30 mg/kg po qd for 10 days then 15 mg/kg, week 4): 92%
- reduction of total BLI intensities (22Rv1 cells; low-dose 6 mg/kg po qd, week 4): 74%
- venous thromboembolic events ([6]; % of patients): 6%
- arterial occlusive adverse events: cardiac vascular events ([6]; patients): 21%
- arterial occlusive adverse events: cerebrovascular ([6]; patients): 9%
- arterial occlusive adverse events: peripheral vascular ([6]; patients): 12%
- common adverse event: abdominal pain ([6]; patients): 48%
- common adverse event: arterial ischemia ([6]; patients): 42%
- common adverse event: arthralgia ([6]; patients): 32%
- common adverse event: back pain ([6]; patients): 21%
- common adverse event: constipation ([6]; patients): 41%
- common adverse event: diarrhea ([6]; patients): 20%
- common adverse event: dry skin ([6]; patients): 42%
- common adverse event: fatigue ([6]; patients): 47%
- common adverse event: headache ([6]; patients): 43%
- common adverse event: hypertension ([6]; patients): 69%
- common adverse event: myalgia ([6]; patients): 24%
- common adverse event: nausea ([6]; patients): 28%
- common adverse event: pain in extremity ([6]; patients): 23%
- common adverse event: peripheral neuropathy ([6]; patients): 24%
- common adverse event: pyrexia ([6]; patients): 26%
- common adverse event: rash ([6]; patients): 63%
